In this test the target is RIP2 recombinant protein (Homo sapiens, UniProt O43353). The test can be described thus: radiometric protein kinase assay (33PanQinase Activity Assay), in vitro peptide-based kinase assay. In kind it is biochemical. The note with it: for remaining activity at 0.1 µM / remaining activity at 1 µM: 1 h; for remaining activity at 0.1 µM: compound at 0.1 μM; for remaining activity at 1 µM: compound at 1 μM; for IC50: ATP 3.0 μM, RIP2 15.7 nM, substrate RBER-Chktide. The procedure: The inhibition of RIP2 kinase was assessed using RIP2 recombinant protein in an in vitro peptide-based kinase assay.
Chain of RIP2 recombinant protein (O43353 whole entry): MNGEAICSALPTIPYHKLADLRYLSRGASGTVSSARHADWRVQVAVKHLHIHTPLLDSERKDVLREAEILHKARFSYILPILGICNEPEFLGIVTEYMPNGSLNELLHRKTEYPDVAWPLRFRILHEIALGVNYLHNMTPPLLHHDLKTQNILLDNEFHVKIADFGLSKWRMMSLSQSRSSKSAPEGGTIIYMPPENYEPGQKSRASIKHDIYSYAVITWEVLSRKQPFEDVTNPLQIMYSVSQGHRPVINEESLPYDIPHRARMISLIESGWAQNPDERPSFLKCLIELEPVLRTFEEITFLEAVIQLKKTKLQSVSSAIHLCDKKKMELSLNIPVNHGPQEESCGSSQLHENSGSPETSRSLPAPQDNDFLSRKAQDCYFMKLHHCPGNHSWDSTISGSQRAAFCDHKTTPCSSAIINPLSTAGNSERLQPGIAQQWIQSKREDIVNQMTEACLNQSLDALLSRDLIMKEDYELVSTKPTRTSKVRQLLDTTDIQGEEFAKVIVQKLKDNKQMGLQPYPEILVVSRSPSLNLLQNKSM
A radiometric protein kinase assay (^33PanQinase® (^33PanQinase Activity Assay) is used for measuring the kinase activity. All assays are performed in 96-well FlashPlates™ from Perkin Elmer in a 50 μl reaction volume. The reaction cocktail is pipetted in 4 steps in the following order:
10 μl of non-radioactive ATP solution (in H2O)
25 μl of assay buffer/[γ-^33P]-ATP mixture
5 μl of test sample in 10% DMSO
10 μl of enzyme/substrate mixture
The assay for RIP2 contains 70 mM HEPES-NaOH pH 7.5, 3 mM MgCl2, 3 mM MnCl2, 3 μM Na-orthovanadate, 1.2 mM DTT, 50 μg/ml PEG20000, ATP (3.0 μM), [γ-^33P]-ATP (approx. 5×10^05 cpm per well), protein kinase RIP2 (15.7 nM) and substrate (RBER-Chktide), 2.0 μg/50 μl). The reaction cocktails were incubated at 30° C. for 60 minutes. The reaction was stopped with 50 μl of 2% (v/v) H3PO4, plates were aspirated and washed two times with 200 μl 0.9% (w/v) NaCl. Incorporation of ^33Pi (counting of “cpm”) was determined with a microplate scintillation counter.
The compounds are dissolved to 10 mM in DMSO. Where needed, solutions are sonicated in a bath sonicator.
Table 4 provides the pIC50 values and % Remaining activity values at two concentrations (1 μM and 0.1 μM) of the compounds according to the invention, obtained using the above mentioned kinase assay.

For the molecule `Fc1cc2cc(c1)-c1cnn3ccc(nc13)NCCN(C1CCC3(CC1)OCCO3)CCO2` [Compound F84], the remaining activity at 0.1 µM is below 50%, the remaining activity at 1 µM was below 50% and the IC50 lay within 100 to 1000 nM.
For the molecule `CCCCN1CCNc2ccn3ncc(c3n2)-c2cc(cc(C(N)=O)c2)OCC1` [Compound F92], the remaining activity at 0.1 µM is below 50%, the remaining activity at 1 µM is below 50% and the IC50 was below 100 nM.
As to `CC1(C)CCCC(N2CCNc3ccn4ncc(c4n3)-c3cc(F)cc(c3)OCC2)C1` (stereo not shown) [Compound F89], the remaining activity at 0.1 µM was below 50%, the remaining activity at 1 µM was below 50% and the IC50 was 100 to 1000 nM.
`O=C1COc2cncc(c2)-c2cnn3ccc(nc23)NCCCN1` [Compound F106]: the IC50 was in the range of 100 to 1000 nM.
For the molecule `NC(=O)c1cc2cc(c1)-c1cnn3ccc(nc13)NCCN(C1COC1)CCO2` [Compound F91], the remaining activity at 0.1 µM is below 50%, the remaining activity at 1 µM was below 50% and the IC50 was below 100 nM.
As for `CCC(C)N1CCNc2ccn3ncc(c3n2)-c2cc(F)cc(c2)OCC1` (stereo not shown) [Compound F83], the remaining activity at 0.1 µM is below 50%, the remaining activity at 1 µM was below 50% and the IC50 was below 100 nM.
Turning to `CN1CCN(C(=O)C2CC2)CCNc2ccn3ncc(c3n2)-c2cccc(c2)C1` [Compound B76], the remaining activity at 0.1 µM was above 50%, the remaining activity at 1 µM is below 50% and the IC50 is 100 to 1000 nM.
On to `CCCCN1CCNc2ccn3ncc(c3n2)-c2cc(F)cc(c2)OCC1` [Compound F81], for which the remaining activity at 0.1 µM was below 50%, the remaining activity at 1 µM is below 50% and the IC50 was below 100 nM.
As for `NC(=O)c1ccc2cc1OCC(=O)NCCCNc1ccn3ncc-2c3n1` [Compound B21], the remaining activity at 0.1 µM was below 50%, the remaining activity at 1 µM was below 50% and the IC50 is below 100 nM.
Regarding `CC1CNc2ccn3ncc(c3n2)-c2cccc(c2)OCC(=O)N1` (stereo not shown) [Compound F105], the remaining activity at 0.1 µM was above 50%, the remaining activity at 1 µM is below 50% and the IC50 is 100 to 1000 nM.
Taken in the same sequence, the figures for `O=C1CCNc2ccn3ncc(c3n2)-c2cc(F)cc(c2)OCCN1` [Compound B74] were below 50%, below 50% and 100 to 1000 nM.
On to `O=C(CN1CCOCC1)N1CCNc2ccn3ncc(c3n2)-c2cccc(c2)OCC1` [Compound B36], for which the remaining activity at 0.1 µM is below 50%, the remaining activity at 1 µM is below 50% and the IC50 is below 100 nM.
With `COCCN1CCCOc2cc(F)cc(c2)-c2cnn3ccc(nc23)NCC1` [Compound F87], the remaining activity at 0.1 µM was below 50%, the remaining activity at 1 µM was below 50% and the IC50 was below 100 nM.
Consider `CC1CNCCOc2cccc(c2)-c2cnn3ccc(nc23)N1` (stereo not shown) [Compound F108], for which the IC50 was in the range of 100 to 1000 nM.
In the case of `COCCN1CCCNc2ccn3ncc(c3n2)-c2cc(F)cc(c2)OCC1` [Compound F86], the remaining activity at 0.1 µM is below 50%, the remaining activity at 1 µM was below 50% and the IC50 was below 100 nM.
In the case of `CN(C)CCN1CCN(C(=O)C2CC2)CCOc2cccc(c2)-c2cnn3ccc1nc23` [Compound B48], the remaining activity at 0.1 µM was below 50%, the remaining activity at 1 µM was below 50% and the IC50 is below 100 nM.
For the molecule `COCCC(=O)N1CCCN(C)c2cccc(c2)-c2cnn3ccc(nc23)NCC1` [Compound B19], the remaining activity at 0.1 µM is below 50% and the remaining activity at 1 µM is below 50%.
As for `Fc1cc2cc(c1)-c1cnn3ccc(nc13)NCCN(C1CCOCC1)CCO2` [Compound F82], the remaining activity at 0.1 µM was below 50%, the remaining activity at 1 µM was below 50% and the IC50 was below 100 nM.
As for `COCCN1CCCNc2ccn3ncc(c3n2)-c2cc(Cl)cc(c2)OCC1` [Compound F88], the remaining activity at 0.1 µM is below 50%, the remaining activity at 1 µM is below 50% and the IC50 was below 100 nM.

Usually remaining activity stands for the share of the control activity or signal that is left under treatment. The term IC50 denotes the concentration that inhibits the measured activity by half.

The record behind these values is US20160024114A1, “MACROCYCLIC RIP2 KINASE INHIBITORS” (ONCODESIGN S.A, priority 2013, published 2016).
